Results published in patent publication US20210187105A1, “COMBINATION THERAPY OF ANTI-MIF ANTIBODIES AND GLUCOCORTICOIDS” (Baxalta Incorporated, priority 2012, published 2021).

Legend:
[1] = tested on: immune mediated-nephrotoxic nephritis (NTN) in Wistar Kyoto (WKY) rats; test: Animal model for crescentic glomerulonephritis (nephrotoxic nephritis); format: in vivo, rat
Description: This model is recognized in the art as predictable to show the effects of the invention. It is suitable to show the effects of the combination therapy over the complete range of diseases which can be subsumed under the above definition of “MIF related diseases” particularly, this model is suitable for the following diseases: Lupus nephritis, anti-GBM nephritis, ANCA nephritis, IgA nephropathy. Dexamethasone is recognized in the art as predictive for a respective glucocorticoid in the treatment of a human. […] This model has a rapid onset of disease with macrophage infiltration, fibrin deposition and tissue destruction 12. NTN is induced in male WKY rats by single intravenous injection of 0.1 ml rabbit anti-rat glomerular basement membrane serum (day 0). mAb and Dexamethasone is injected intraperitoneally at time points and dosages described below. 24 hour urine samples are collected using metabolic cages before induction of glomerulonephritis and at various time intervals after induction of nephritis for quantification of proteinuria. Sections of renal tissues are frozen for subsequent analysis by immunohistology. Morphology of renal injury is assessed in haematoxylin/eosin (H&E) and periodic acid-Schiff (PAS) stained renal tissue sections. Macrophage is detected by immunoperoxidase technique and using the monoclonal mouse antibody ED1 (Serotec, U C). The animal model was described in detail (Tam F W K, Smith J, Morel D, Karkar A M, Thompson E M, Cook H T, Pusey C D: Development of scarring and renal failure in a rat model of crescentic glomerulonephritis. Nephrol Dial Transplant 14:1658-1666, 1999).

[2] = tested on: Contact hypersensitivity (CHS) response to 2,4-dinitrofluorobenzene (DNFB) in C57BL/6 mice; test: Contact hypersensitivity (CHS) response to DNFB, ear swelling; format: in vivo, mouse; conditions: topical
Method: The Contact hypersensitivity (CHS) response to 2,4-dinitrofluorobenzene (DNFB) was determined using a modification of an earlier model described (see Ludwig, et al., 2010, Am J Pathol 176, 1339-1345). C57BL/6 mice were sensitized by treating the shaved mouse back skin with 75 μl of DNFB (Sigma, St. Louis, Mo.) solution (0.5% in acetone/olive oil, 4/1). […] the right ears of the mice were challenged with 20 μl 0.3% DNFB to cause a local inflammatory response. The vehicle (acetone/olive) oil was applied to the left ears as a control. The swelling response to DNFB, specified as the difference between the right and left ears, was measured 24 h after challenge using a micrometer (Mitutoyo Co., Tokyo, Japan). 8 mice were used per group.

[3] = single intraperitoneal injection of 0.25 mg/kg, 4 days after induction, day 8

C[C@@H]1C[C@H]2[C@@H]3CCC4=CC(=O)C=C[C@]4(C)[C@@]3(F)[C@@H](O)C[C@]2(C)[C@@]1(O)C(=O)CO [Dexamethasone, reference compound]
suboptimal dexamethasone concentration ([1]; dose finding): 0.025 mg/kg
reduction of crescent counts [1, 3]: approximately 25%
reduction of glomerular macrophage infiltration [1, 3]: approximately 53%
reduction of proteinuria ([1]; single intraperitoneal injection of 0.25 mg/kg, 4 days after induction, urine day 7 to day 8): approximately 50%

C[C@]12CCC(=O)C=C1CC[C@@H]1[C@@H]2[C@@H](O)C[C@@]2(C)[C@H]1CC[C@]2(O)C(=O)CO [hydrocortisone]
anti-inflammatory effects, ear thickness ([2]; 1% in DAC base cream ointment, without antibody): sub-optimal anti-inflammatory effects
ear swelling ([2]; suboptimal dose 1% in DAC base cream, in combination with 10 mg/kg isotype control antibody): did not reduce ear swelling
